Measured values published in patent publication US8969516B2, “Method of hydrolysis of peptide bond” (priority 2006, dated 2015).

Experiment: MALDI-TOF screening of Ni^2+ dependent hydrolysis in a combinatorial peptide library
Assay type: physicochemical
Settings: CH3CO-Gly-Ala-Ser-X-His-Z-Lys-Phe-Leu-NH2 library, Ni^2+ 2 mM, pH 8.2, 10 mM Tris, score=24/tm
Summary of the method: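 MALDI-TOF spectra taken at 2, 4, 6 and 8 h tracked the appearance of Ser/Thr-X-His-Z-Lys-Phe-Leu-NH2 cleavage products and the fall in substrate signals. Reactions: 1 mM peptide mixture, 2 mM Ni^2+, 10 mM Tris pH 8.2, at 37 or 45 °C; X/Z substitutions ranked by summed scores.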

Substance: Ac-GASNHDKFL-NH2 [SNHD]
- hydrolysis score from MALDI-TOF screening (37° C.): 0 (a score of 0 if no trace of the product of hydrolysis was seen after 8 hours of incubation)
- hydrolysis score from MALDI-TOF screening (45° C.): 0 (a score of 0 if no trace of the product of hydrolysis was seen after 8 hours of incubation)

Substance: Ac-GASNHEKFL-NH2 [SNHE]
- hydrolysis score from MALDI-TOF screening (37° C.): 0 (a score of 0 if no trace of the product of hydrolysis was seen after 8 hours of incubation)
- hydrolysis score from MALDI-TOF screening (45° C.): 0 (a score of 0 if no trace of the product of hydrolysis was seen after 8 hours of incubation)

Substance: Ac-GASNHFKFL-NH2 [SNHF]
- hydrolysis score from MALDI-TOF screening (37° C.): 3 (a score of 3 for detection at 8 hours)
- hydrolysis score from MALDI-TOF screening (45° C.): 3 (a score of 3 for detection at 8 hours)

Substance: Ac-GASNHGKFL-NH2 [SNHG]
- hydrolysis score from MALDI-TOF screening (37° C.): 0 (a score of 0 if no trace of the product of hydrolysis was seen after 8 hours of incubation)
- hydrolysis score from MALDI-TOF screening (45° C.): 0 (a score of 0 if no trace of the product of hydrolysis was seen after 8 hours of incubation)

Substance: Ac-GASNHHKFL-NH2 [SNHH]
- hydrolysis score from MALDI-TOF screening (37° C.): 0 (a score of 0 if no trace of the product of hydrolysis was seen after 8 hours of incubation)
- hydrolysis score from MALDI-TOF screening (45° C.): 3 (a score of 3 for detection at 8 hours)

Substance: Ac-GASNHIKFL-NH2 [SNHI]
- hydrolysis score from MALDI-TOF screening (37° C.): 4 (a score of 4 for detection at 6 hours)
- hydrolysis score from MALDI-TOF screening (45° C.): 4 (a score of 4 for detection at 6 hours)

Substance: Ac-GASNHKKFL-NH2 [SNHK]
- hydrolysis score from MALDI-TOF screening (37° C.): 4 (a score of 4 for detection at 6 hours)
- hydrolysis score from MALDI-TOF screening (45° C.): 4 (a score of 4 for detection at 6 hours)

Substance: Ac-GASNHLKFL-NH2 [SNHL]
- hydrolysis score from MALDI-TOF screening (37° C.): 4 (a score of 4 for detection at 6 hours)
- hydrolysis score from MALDI-TOF screening (45° C.): 4 (a score of 4 for detection at 6 hours)

Substance: Ac-GASNHMKFL-NH2 [SNHM]
- hydrolysis score from MALDI-TOF screening (37° C.): 0 (a score of 0 if no trace of the product of hydrolysis was seen after 8 hours of incubation)
- hydrolysis score from MALDI-TOF screening (45° C.): 0 (a score of 0 if no trace of the product of hydrolysis was seen after 8 hours of incubation)

Substance: Ac-GASNHNKFL-NH2 [SNHN]
- hydrolysis score from MALDI-TOF screening (37° C.): 0 (a score of 0 if no trace of the product of hydrolysis was seen after 8 hours of incubation)
- hydrolysis score from MALDI-TOF screening (45° C.): 0 (a score of 0 if no trace of the product of hydrolysis was seen after 8 hours of incubation)

Substance: Ac-GASNHPKFL-NH2 [SNHP]
- hydrolysis score from MALDI-TOF screening (37° C.): 0 (a score of 0 if no trace of the product of hydrolysis was seen after 8 hours of incubation)
- hydrolysis score from MALDI-TOF screening (45° C.): 0 (a score of 0 if no trace of the product of hydrolysis was seen after 8 hours of incubation)

Substance: Ac-GASNHQKFL-NH2 [SNHQ]
- hydrolysis score from MALDI-TOF screening (37° C.): 0 (a score of 0 if no trace of the product of hydrolysis was seen after 8 hours of incubation)
- hydrolysis score from MALDI-TOF screening (45° C.): 0 (a score of 0 if no trace of the product of hydrolysis was seen after 8 hours of incubation)

Substance: Ac-GASNHRKFL-NH2 [SNHR]
- hydrolysis score from MALDI-TOF screening (37° C.): 6 (a score of 6 for detection at 4 hours)
- hydrolysis score from MALDI-TOF screening (45° C.): 6 (a score of 6 for detection at 4 hours)

Substance: Ac-GASNHSKFL-NH2 [SNHS]
- hydrolysis score from MALDI-TOF screening (37° C.): 0 (a score of 0 if no trace of the product of hydrolysis was seen after 8 hours of incubation)
- hydrolysis score from MALDI-TOF screening (45° C.): 0 (a score of 0 if no trace of the product of hydrolysis was seen after 8 hours of incubation)

Substance: Ac-GASNHTKFL-NH2 [SNHT]
- hydrolysis score from MALDI-TOF screening (37° C.): 0 (a score of 0 if no trace of the product of hydrolysis was seen after 8 hours of incubation)
- hydrolysis score from MALDI-TOF screening (45° C.): 0 (a score of 0 if no trace of the product of hydrolysis was seen after 8 hours of incubation)

Substance: Ac-GASNHVKFL-NH2 [SNHV]
- hydrolysis score from MALDI-TOF screening (37° C.): 3 (a score of 3 for detection at 8 hours)
- hydrolysis score from MALDI-TOF screening (45° C.): 3 (a score of 3 for detection at 8 hours)

Substance: Ac-GASNHWKFL-NH2 [SNHW]
- hydrolysis score from MALDI-TOF screening (37° C.): 6 (a score of 6 for detection at 4 hours)
- hydrolysis score from MALDI-TOF screening (45° C.): 6 (a score of 6 for detection at 4 hours)

Substance: Ac-GASNHYKFL-NH2 [SNHY]
- hydrolysis score from MALDI-TOF screening (37° C.): 3 (a score of 3 for detection at 8 hours)
- hydrolysis score from MALDI-TOF screening (45° C.): 3 (a score of 3 for detection at 8 hours)

Substance: Ac-GASPHAKFL-NH2 [SPHA]
- hydrolysis score from MALDI-TOF screening (37° C.): 0 (a score of 0 if no trace of the product of hydrolysis was seen after 8 hours of incubation)
- hydrolysis score from MALDI-TOF screening (45° C.): 0 (a score of 0 if no trace of the product of hydrolysis was seen after 8 hours of incubation)

Substance: Ac-GASPHDKFL-NH2 [SPHD]
- hydrolysis score from MALDI-TOF screening (37° C.): 0 (a score of 0 if no trace of the product of hydrolysis was seen after 8 hours of incubation)
- hydrolysis score from MALDI-TOF screening (45° C.): 0 (a score of 0 if no trace of the product of hydrolysis was seen after 8 hours of incubation)

Substance: Ac-GASPHEKFL-NH2 [SPHE]
- hydrolysis score from MALDI-TOF screening (37° C.): 0 (a score of 0 if no trace of the product of hydrolysis was seen after 8 hours of incubation)
- hydrolysis score from MALDI-TOF screening (45° C.): 0 (a score of 0 if no trace of the product of hydrolysis was seen after 8 hours of incubation)

Substance: Ac-GASPHFKFL-NH2 [SPHF]
- hydrolysis score from MALDI-TOF screening (37° C.): 0 (a score of 0 if no trace of the product of hydrolysis was seen after 8 hours of incubation)
- hydrolysis score from MALDI-TOF screening (45° C.): 0 (a score of 0 if no trace of the product of hydrolysis was seen after 8 hours of incubation)

Substance: Ac-GASPHGKFL-NH2 [SPHG]
- hydrolysis score from MALDI-TOF screening (37° C.): 0 (a score of 0 if no trace of the product of hydrolysis was seen after 8 hours of incubation)
- hydrolysis score from MALDI-TOF screening (45° C.): 0 (a score of 0 if no trace of the product of hydrolysis was seen after 8 hours of incubation)

Substance: Ac-GASPHHKFL-NH2 [SPHH]
- hydrolysis score from MALDI-TOF screening (37° C.): 0 (a score of 0 if no trace of the product of hydrolysis was seen after 8 hours of incubation)
- hydrolysis score from MALDI-TOF screening (45° C.): 0 (a score of 0 if no trace of the product of hydrolysis was seen after 8 hours of incubation)

Substance: Ac-GASPHIKFL-NH2 [SPHI]
- hydrolysis score from MALDI-TOF screening (37° C.): 0 (a score of 0 if no trace of the product of hydrolysis was seen after 8 hours of incubation)
- hydrolysis score from MALDI-TOF screening (45° C.): 0 (a score of 0 if no trace of the product of hydrolysis was seen after 8 hours of incubation)

Substance: Ac-GASPHKKFL-NH2 [SPHK]
- hydrolysis score from MALDI-TOF screening (37° C.): 0 (a score of 0 if no trace of the product of hydrolysis was seen after 8 hours of incubation)
- hydrolysis score from MALDI-TOF screening (45° C.): 0 (a score of 0 if no trace of the product of hydrolysis was seen after 8 hours of incubation)

Substance: Ac-GASPHLKFL-NH2 [SPHL]
- hydrolysis score from MALDI-TOF screening (37° C.): 0 (a score of 0 if no trace of the product of hydrolysis was seen after 8 hours of incubation)
- hydrolysis score from MALDI-TOF screening (45° C.): 0 (a score of 0 if no trace of the product of hydrolysis was seen after 8 hours of incubation)

Substance: Ac-GASPHMKFL-NH2 [SPHM]
- hydrolysis score from MALDI-TOF screening (37° C.): 0 (a score of 0 if no trace of the product of hydrolysis was seen after 8 hours of incubation)
- hydrolysis score from MALDI-TOF screening (45° C.): 0 (a score of 0 if no trace of the product of hydrolysis was seen after 8 hours of incubation)

Substance: Ac-GASPHNKFL-NH2 [SPHN]
- hydrolysis score from MALDI-TOF screening (37° C.): 0 (a score of 0 if no trace of the product of hydrolysis was seen after 8 hours of incubation)
- hydrolysis score from MALDI-TOF screening (45° C.): 0 (a score of 0 if no trace of the product of hydrolysis was seen after 8 hours of incubation)

Substance: Ac-GASPHPKFL-NH2 [SPHP]
- hydrolysis score from MALDI-TOF screening (37° C.): 0 (a score of 0 if no trace of the product of hydrolysis was seen after 8 hours of incubation)
- hydrolysis score from MALDI-TOF screening (45° C.): 0 (a score of 0 if no trace of the product of hydrolysis was seen after 8 hours of incubation)
